A value given as a limit tells only on which side of the number the result lay.

For one series, the target named is Cytochrome P450 3A4 (Homo sapiens, UniProt P08684). The series is described as follows: Inhibition of human CYP3A4. It is filed as ADME.
Another series has as its target Cytochrome P450 2D6 (Homo sapiens, UniProt P10635).
A further series addresses T1, Cytochrome P450 1A2 (Homo sapiens, UniProt P05177).
T1 sequence (P05177 whole entry): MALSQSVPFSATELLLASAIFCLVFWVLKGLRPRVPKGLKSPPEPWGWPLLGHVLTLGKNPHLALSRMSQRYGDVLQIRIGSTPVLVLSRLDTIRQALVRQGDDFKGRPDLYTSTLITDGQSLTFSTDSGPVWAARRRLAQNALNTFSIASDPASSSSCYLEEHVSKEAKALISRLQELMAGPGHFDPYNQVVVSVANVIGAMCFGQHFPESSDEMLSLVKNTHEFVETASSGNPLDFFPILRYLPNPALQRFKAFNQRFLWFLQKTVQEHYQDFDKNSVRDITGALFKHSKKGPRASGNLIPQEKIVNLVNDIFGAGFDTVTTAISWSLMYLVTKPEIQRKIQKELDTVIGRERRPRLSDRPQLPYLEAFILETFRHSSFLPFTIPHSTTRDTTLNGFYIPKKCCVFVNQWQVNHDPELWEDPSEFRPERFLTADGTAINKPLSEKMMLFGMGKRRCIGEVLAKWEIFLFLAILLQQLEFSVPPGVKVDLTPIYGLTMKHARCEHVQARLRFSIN

Another series addresses Cytochrome P450 2C9 (Homo sapiens, UniProt P11712).
For series [1] the following is noted: human, plasma.
Description: Fraction unbound in human plasma
For series [2] the following is noted: mouse, plasma.
Description: Fraction unbound in mouse plasma
A short description of series [3]: in vivo. As to conditions: mouse, iv, 1 mg/kg.
Description: Half-life in mouse at 1 mpk, iv
The nature of series [4]: in vivo. As to conditions: mouse, plasma, iv, 1 mg/kg.
Description: Plasma clearance in mouse at 1 mpk, iv
A short description of series [5]: in vivo. Particulars: mouse, iv, 1 mg/kg. The source holds these as a separate data set.
Description: AUCt in mouse at 1 mpk, iv
Series [6] is described as follows: in vivo. As to conditions: mouse, iv, 1 mg/kg. This is another data set of the same source.
Description: Volume of distribution in mouse at 1 mpk, iv
A short description of series [7]: in vivo. Particulars: mouse, po, 3 mg/kg.
Description: Cmax in mouse at 3 mpk, po
Series [8] is described as follows: in vivo. Particulars: mouse, po, 3 mg/kg. This is another data set of the same source.
Description: Half-life in mouse at 3 mpk, po
The nature of series [9]: in vivo. Particulars: mouse, po, 3 mg/kg. The source holds these as a separate data set.
Description: AUCt in mouse at 3 mpk, po
Series [10] can be described thus: in vivo. Particulars: mouse, po, 3 mg/kg. This is another data set of the same source.
Description: Oral bioavailability in mouse at 3 mpk
The target of series [11] is Induced myeloid leukemia cell differentiation protein Mcl-1 (Homo sapiens, UniProt Q07820). The series is described as follows: biochemical.
Induced myeloid leukemia cell differentiation protein Mcl-1, sequence (Q07820 whole entry): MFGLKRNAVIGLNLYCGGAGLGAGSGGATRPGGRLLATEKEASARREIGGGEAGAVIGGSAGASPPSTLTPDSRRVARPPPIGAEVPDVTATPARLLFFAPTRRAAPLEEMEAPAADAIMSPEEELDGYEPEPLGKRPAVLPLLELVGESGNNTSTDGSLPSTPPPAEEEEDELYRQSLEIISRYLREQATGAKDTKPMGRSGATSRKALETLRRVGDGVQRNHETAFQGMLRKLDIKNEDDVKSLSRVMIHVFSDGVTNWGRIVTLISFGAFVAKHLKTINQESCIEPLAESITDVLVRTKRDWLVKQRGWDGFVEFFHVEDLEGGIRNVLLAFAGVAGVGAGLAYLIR

Cytochrome P450 2C9, sequence (P11712 whole entry): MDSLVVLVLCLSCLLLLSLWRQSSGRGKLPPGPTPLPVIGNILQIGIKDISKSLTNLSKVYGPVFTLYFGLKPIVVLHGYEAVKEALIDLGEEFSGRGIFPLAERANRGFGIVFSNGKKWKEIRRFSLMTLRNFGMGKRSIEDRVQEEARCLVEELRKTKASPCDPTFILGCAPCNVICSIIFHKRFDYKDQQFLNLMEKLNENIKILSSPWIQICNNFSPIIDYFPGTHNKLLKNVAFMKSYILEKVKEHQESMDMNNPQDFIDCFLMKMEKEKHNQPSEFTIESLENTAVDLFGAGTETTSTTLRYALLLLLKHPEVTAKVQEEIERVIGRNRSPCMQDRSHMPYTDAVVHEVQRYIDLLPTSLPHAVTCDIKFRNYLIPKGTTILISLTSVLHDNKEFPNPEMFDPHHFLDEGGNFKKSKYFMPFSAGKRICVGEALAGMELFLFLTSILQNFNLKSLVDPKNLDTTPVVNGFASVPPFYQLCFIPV
Cytochrome P450 3A4, sequence (P08684 whole entry): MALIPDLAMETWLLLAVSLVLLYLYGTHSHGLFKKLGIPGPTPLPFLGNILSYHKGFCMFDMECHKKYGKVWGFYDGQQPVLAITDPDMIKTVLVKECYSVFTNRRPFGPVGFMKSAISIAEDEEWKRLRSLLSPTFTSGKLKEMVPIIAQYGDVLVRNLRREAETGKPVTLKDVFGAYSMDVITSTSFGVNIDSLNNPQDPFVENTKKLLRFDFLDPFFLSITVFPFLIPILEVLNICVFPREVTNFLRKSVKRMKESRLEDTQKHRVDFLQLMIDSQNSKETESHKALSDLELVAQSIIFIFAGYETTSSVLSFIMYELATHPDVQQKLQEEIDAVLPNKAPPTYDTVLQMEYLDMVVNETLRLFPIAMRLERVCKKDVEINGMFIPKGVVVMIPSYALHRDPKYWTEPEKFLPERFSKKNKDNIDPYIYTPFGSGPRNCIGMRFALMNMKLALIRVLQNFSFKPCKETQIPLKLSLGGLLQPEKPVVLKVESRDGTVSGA
Cytochrome P450 2D6, sequence (P10635 whole entry): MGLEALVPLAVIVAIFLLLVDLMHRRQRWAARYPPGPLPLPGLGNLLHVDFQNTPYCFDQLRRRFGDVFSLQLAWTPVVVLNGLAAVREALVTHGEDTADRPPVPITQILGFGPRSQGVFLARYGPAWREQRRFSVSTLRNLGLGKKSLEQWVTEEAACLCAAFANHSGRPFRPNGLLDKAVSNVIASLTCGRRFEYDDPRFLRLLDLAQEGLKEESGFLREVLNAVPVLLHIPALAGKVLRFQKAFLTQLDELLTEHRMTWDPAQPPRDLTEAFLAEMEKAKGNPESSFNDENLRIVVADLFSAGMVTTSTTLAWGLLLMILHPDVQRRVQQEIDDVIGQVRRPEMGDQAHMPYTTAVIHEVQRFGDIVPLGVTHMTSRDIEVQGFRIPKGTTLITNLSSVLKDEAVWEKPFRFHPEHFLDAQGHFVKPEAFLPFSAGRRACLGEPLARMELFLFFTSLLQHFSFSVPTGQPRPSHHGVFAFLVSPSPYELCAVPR
Description for Cytochrome P450 1A2: Inhibition of human CYP1A2
Description for Cytochrome P450 2C9: Inhibition of human CYP2C9
Description for Cytochrome P450 2D6: Inhibition of human CYP2D6

The IC50 is the concentration needed to halve the response being measured. Lower therefore signals greater potency. One may read the half-life as how long it takes for the measured level to halve. For orientation: clearance means a measure of how efficiently the substance is removed, as volume per time. A lower clearance goes with inefficient removal. Usually AUC(0-t) stands for exposure summed from dosing to a finite time, without extrapolation to infinity. Low readings indicate less exposure, high ones more exposure. One may read the Vd as a proportionality between amount in the body and measured concentration, not a real space. A word on the Cmax: it is the highest concentration seen after dosing. The term bioavailability denotes dose-corrected exposure relative to a reference, in per cent. Read a high bioavailability as good availability. Broadly, the Ki is a measure of affinity in units of concentration, obtained from inhibition or displacement. A low value points to higher affinity. Regarding `CCc1sc2ncnc(N[C@H](Cc3ccccc3)C(=O)O)c2c1-c1ccc(OCCN2CCN(C)CC2)c(Cl)c1C` (stereo in doubt; 17a), the IC50 was 5.2 µM against Cytochrome P450 3A4, at least 20 µM on Cytochrome P450 2D6, at least 20 µM against Cytochrome P450 1A2 and at least 20 µM on Cytochrome P450 2C9. Besides, the Fu in series [1] and in series [2] was 0.2% in each case. Besides, the half-life was 0.65 h in “in vivo [3]” and 3.8 h in the series “in vivo [8]”. The same molecule registered a clearance in “in vivo [4]” of 33 mL/min/kg. The AUC(0-t) in “in vivo [5]” stood at 509 ng·h/mL; in the series “in vivo [9]” it was 168 ng·h/mL. Also, in the series “in vivo [6]”, the Vd was determined as 0.9 L/kg. Besides, the Cmax in “in vivo [7]” is 64 ng/mL. The same molecule gave a bioavailability in “in vivo [10]” of 16%. For the same molecule, the Ki in series [11] worked out at 0.22 µM.

The values are drawn from ChEMBL document CHEMBL4373699, “Structure-Guided Discovery of a Selective Mcl-1 Inhibitor with Cellular Activity” (J Med Chem, 2019).
